The target of one assay is T1, plasma DP IV activity (Rattus norvegicus, UniProt P14740).
T1 construct: from tissue; host or cells: plasma of Wistar rats
Put plainly: DP IV inhibiting activity after intravasal and oral administration to Wistar rats. The note with it: 100 mg/kg; for in vivo DP IV-inhibition at tmax, i.v.: intra-vasal (intra-arterial); for in vivo DP IV-inhibition at tmax, p.o.: oral. It is filed as in vivo. How it is done:
Male Wistar rats (Shoe: Wist(Sho)) with a body weight ranging between 250 and 350 g were purchased from Tierzucht Schönwalde (Schönwalde, Germany).
Animals were single-caged under conventional conditions with controlled temperature (22±2° C.) on a 12/12 hours light/dark cycle (light on at 06:00 AM). Standard pelleted chow (ssniff® Soest, Germany) and tap water acidified with HCl were allowed ad libitum.
After ≧one week of adaptation at the housing conditions, catheters were implanted into the carotid artery of Wistar rats under general anaesthesia (i.p. injection of 0.25 ml/kg b.w. Rompun® [2%], BayerVital, Germany and 0.5 ml/kg b.w. Ketamin 10, Atarost GmbH & Co., Twistringen, Germany). The animals were allowed to recover for one week. The catheters were flushed with heparin-saline (100 IU/ml) three times per week. In case of catheter dysfunction, a second catheter was inserted into the contra-lateral carotid artery of the respective rat. After one week of recovery from surgery, this animal was reintegrated into the study. In case of dysfunction of the second catheter, the animal was withdrawn from the study. A new animal was recruited and the experiments were continued in the planned sequence, beginning at least 7 days after catheter implantation.
After overnight fasting, 100 μl samples of heparinised arterial blood were collected at −30, −5, and 0 min. […] In the case of oral administration, an additional volume of 1 ml saline was injected into the arterial catheter. In the case of intra-arterial administration, the catheter was immediately flushed with 30 μl saline and an additional 1 ml of saline was given orally via the feeding tube.
All blood samples were collected into ice cooled Eppendorf tubes (Eppendorf-Netheler-Hinz, Hamburg, Germany) filled with 10 μl 1 M sodium citrate buffer (pH 3.0) for plasma DP IV activity measurement. Eppendorf tubes were centrifuged immediately (12000 rpm for 2 min, Hettich Zentrifuge EBA 12, Tuttlingen; Germany): The plasma fractions were stored on ice until analysis or were frozen at −20° C. until analysis. All plasma samples were labelled with the following data: • Code number • Animal Number • Date of sampling • Time of sampling Analytical Methods
The assay mixture for determination of plasma DP IV activity consisted of 80 μl reagent and 20 μl plasma sample. […] The DP IV activity was expressed in mU/ml.
All parameters were analysed in a descriptive manner including mean and SD.

In another assay the target is T2, porcine DP II (Sus scrofa, UniProt A0A5G2QK18).
T2 construct: The enzyme used was purified from porcine kidney; from tissue; host or cells: porcine kidney
T2 sequence (A0A5G2QK18 28-502): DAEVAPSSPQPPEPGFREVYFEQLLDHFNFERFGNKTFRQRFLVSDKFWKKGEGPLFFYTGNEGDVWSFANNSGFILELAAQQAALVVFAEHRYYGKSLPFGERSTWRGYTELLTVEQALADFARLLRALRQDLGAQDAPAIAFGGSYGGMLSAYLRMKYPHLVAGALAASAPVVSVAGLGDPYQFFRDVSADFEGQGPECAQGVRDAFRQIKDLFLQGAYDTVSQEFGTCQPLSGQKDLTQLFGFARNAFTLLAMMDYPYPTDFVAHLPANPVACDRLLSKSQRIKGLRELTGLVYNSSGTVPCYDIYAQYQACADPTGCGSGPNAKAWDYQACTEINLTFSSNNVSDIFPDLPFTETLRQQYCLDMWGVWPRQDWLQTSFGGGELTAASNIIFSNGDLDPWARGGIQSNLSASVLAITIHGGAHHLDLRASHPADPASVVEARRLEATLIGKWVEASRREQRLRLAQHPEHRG
Kind of assay: Inhibition of DP IV-like enzymes, dipeptidyl peptidase II. It is filed as biochemical. How it is done:
DP II (3.4.14.2) releases N-terminal dipeptides from oligopeptides if the N-terminus is not protonated (McDonald, J. K., Ellis, S. & Reilly, T. J., 1966, J. Biol. Chem., 241, 1494-1501). Pro and Ala in P1-position are preferred residues. The enzyme activity is described as DP IV-like activity, but DP II has an acidic pH-optimum. The enzyme used was purified from porcine kidney.
100 μl glutaminylpyrrolidine or glutaminylthazolidine in an concentration range of 1*10^−4 M-5*10^−8M were admixed with 100 μl μl buffer solution (40 mM HEPES, pH7.6, 0.015% Brij, 1 mM DTT), 50 μl lysylalanylaminomethylcoumarine solution (5 mM) and 20 μl porcine DP II (250fold diluted in buffer solution). Fluorescence measurement was performed at 30° C. and λexiatation=380 nm, λemission=465 nm for 25 min using a plate reader (HTS7000plus, Applied Biosystems, Weiterstadt, Germany).

Assay [1] addresses T3, Dipeptidyl Peptidase I (DP I, Cathepsin C) (Rattus norvegicus, UniProt P80067).
T3 construct: purchased Qiagen GmbH, Hilden, Germany
T3 sequence (P80067 25-462): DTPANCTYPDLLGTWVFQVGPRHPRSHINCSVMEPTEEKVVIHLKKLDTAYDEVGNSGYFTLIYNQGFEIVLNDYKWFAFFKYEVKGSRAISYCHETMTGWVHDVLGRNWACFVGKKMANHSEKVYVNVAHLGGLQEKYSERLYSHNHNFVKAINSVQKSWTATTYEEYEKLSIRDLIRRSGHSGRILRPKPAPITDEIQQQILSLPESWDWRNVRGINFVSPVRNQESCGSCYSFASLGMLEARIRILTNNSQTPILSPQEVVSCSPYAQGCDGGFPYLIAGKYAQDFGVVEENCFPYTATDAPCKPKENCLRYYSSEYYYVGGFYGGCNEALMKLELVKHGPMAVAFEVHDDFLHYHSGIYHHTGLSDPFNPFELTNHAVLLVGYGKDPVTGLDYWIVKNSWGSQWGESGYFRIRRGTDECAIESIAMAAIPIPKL
Put plainly: Cross reacting enzymes: dipeptidyl peptidase I. It is filed as biochemical. The note with it: concentration range 1*10^−5M-1*10^−7M. How it is done: DP I or cathepsin C is a lysosomal cysteine protease which cleaves off dipeptides from the N-terminus of their substrates (Gutman, H. R. & Fruton, J. S., 1948, J. Biol. Chem., 174, 851-858). It is classified as a cysteine protease. The enzyme used was purchased from Qiagen (Qiagen GmbH, Hilden, Germany). In order to get a fully active enzyme, the enzyme was diluted 1000 fold in MES buffer pH5,6 (40 mM MES, 4 mM DTT, 4 mM KCl, 2 mM EDTA, 0.015% Brij) and pre-incubated for 30 min at 30° C.
50 μl glutaminylpyrrolidine or glutaminylthazolidine in a concentration range of 1*10^−5M-1*10^−7M were admixed with 110 μl buffer-enzyme-mixture. The assay mixture was pre-incubated at 30° C. for 15 min. After pre-incubation, 100 μl, histidylseryl-β-nitroaniline (2*10^−5M) was added and measurement of yellow color development due to β-nitroaniline release was performed at 30° C. and […] for 10 min., using a plate reader (HTS7000 plus, Applied Biosystems, Weiterstadt, Germany).
The IC 50-values were calculated using Graphit 4.0.15 (Erithacus Software, Ltd., UK).

The subject of another assay is EAE. The conditions noted are these: chronic treatment, female Lewis rats; cited from earlier work.
Assay [2] concerns experimental autoimmune encephalomyelitis (EAE). Put plainly: EAE experiment 1: i.p. treatment day 1-15, female Lewis rats. It is filed as in vivo. How it is done: For the first experiment female inbred Lewis rats (n=50) with a mean body weight of 190±6 g, were obtained from Charles River (Bad Sulzfeld, Germany). Animals were randomly assigned to the different experimental conditions. Rats were housed four per cage under a 12:12 h light: dark cycle (lights off at 18:00 h) and at constant temperature (24° C.) in a specific pathogen free air-conditioned colony room with food (Altromin lab chow pellets) and tap water available ad lib. The animals underwent routine cage maintenance once a week. All research and animal care procedures were approved by the government of Lower Saxony in Hannover, Germany, and performed in compliance with international animal welfare standards.
Guinea pig MBP (50 μg/rat) was emulsified in Complete Freund's adjuvant (CFA) containing heat-killed Mycobacterium tuberculosis (H37Ra; 225 μg/rat) and injected s.c. at the base of the tail in a total volume of 100 μl (12). CFA (Sigma) and heat-killed Mycobacterium tuberculosis (H37Ra) were purchased from Life Technologies, Inc. (Rockville, Md.). Clinical disease was scored on the following scale: 0.5: partial loss of tail tone; 1.0: complete tail atony; 2.0: hind limb weakness; 2.5: hind limb paralysis of one leg; 3.0: hind limb paralysis of both legs; 3.5: limb paralysis of three legs; 4.0: quadriplegia and moribund status; 5.0: death due to EAE. Experiments were terminated on day 15 post immunization when most of the animals were about 48 h after maximal clinical score. The incidence of adjuvant-induced arthritis was remarkably low (n=0 in the 1st experiment) using the base of the tail as an immunization site. […]
Comparison over time between the clinical course of EAE of the different treatment conditions was conducted using a two factorial analysis of variance (ANOVA) for repeated measures. Sums of clinical scores of EAE, onset and peak of disease were calculated on the basis of the clinical scores per day and analyzed using a one factorial ANOVA and post hoc Fisher's PLSD tests, if appropriate. […]

Assay [3] shares this test system. Kind of assay: EAE experiment 2: i.p. treatment day 5-15, male Lewis rats. It is filed as in vivo. On the set-up: key to Average score / Maximal score: 0.5 = partial tail tone loss … 4 = quadriplegia, 5 = death; Onset of disease (1st day of score > 1): unit not given here. The conditions noted are these: for Average score / Maximal score / Onset of disease (1st day of score > 1) / Sum of scores: days 5-15 p.i. The procedure:
For the second experiment, male inbred Lewis rats (n=50) with a mean body weight of 230±12 g, were obtained from Charles River (Bad Sulzfeld, Germany). Animals were randomly assigned to the different experimental conditions. Rats were housed four per cage under a 12:12 h light: dark cycle (lights off at 18:00 h) and at constant temperature (24° C.) in a specific pathogen free air-conditioned colony room with food (Altromin lab chow pellets) and tap water available ad lib. The animals underwent routine cage maintenance once a week.
Guinea pig MBP (50 μg/rat) was emulsified in Complete Freund's adjuvant (CFA) containing heat-killed Mycobacterium tuberculosis (H37Ra; 225 μg/rat) and injected s.c. at the base of the tail in a total volume of 100 μl (12). CFA (Sigma) and heat-killed Mycobacterium tuberculosis (H37Ra) were purchased from Life Technologies, Inc. (Rockville, Md.). Clinical disease was scored on the following scale: 0.5: partial loss of tail tone; 1.0: complete tail atony; 2.0: hind limb weakness; 2.5: hind limb paralysis of one leg; 3.0: hind limb paralysis of both legs; 3.5: limb paralysis of three legs; 4.0: quadriplegia and moribund status; 5.0: death due to EAE. Experiments were terminated on day 21 post immunization (p.i.).
The incidence of adjuvant-induced arthritis was remarkably low (n=0 in the 2nd experiment) using the base of the tail as an immunization site. In the second experiment no signs of arthritis were found. […] This time, these animals remained in the analysis, because this finding is probably due to the treatment. In this experiment a phenomenon called “disease dissociation” was observed. In several animals there was a clear tonus of the tail associated with a clear weakness of the hind limbs. The animals were scored maximal, i.e. 2.
Comparison over time between the clinical course of EAE of the different treatment conditions was conducted using a two factorial analysis of variance (ANOVA) for repeated measures. Sums of clinical scores of EAE, onset and peak of disease were calculated on the basis of the clinical scores per day and analyzed using a one factorial ANOVA and post hoc Fisher's PLSD tests, if appropriate. All data are presented as means±SEM.

Entries after “also recorded” stand apart in the source; their conditions may differ. Where a name gives a salt, the structure may show the parent alone. Marks after values point to notes of the source that are not given here. Square brackets hold non-standard residues; d marks the D form. Peptide text beside a SMILES is read from it. pY = N[C@@H](Cc1ccc(OP(=O)(O)O)cc1)C(=O)O

T1 sequence (P14740 37-767 limits assumed): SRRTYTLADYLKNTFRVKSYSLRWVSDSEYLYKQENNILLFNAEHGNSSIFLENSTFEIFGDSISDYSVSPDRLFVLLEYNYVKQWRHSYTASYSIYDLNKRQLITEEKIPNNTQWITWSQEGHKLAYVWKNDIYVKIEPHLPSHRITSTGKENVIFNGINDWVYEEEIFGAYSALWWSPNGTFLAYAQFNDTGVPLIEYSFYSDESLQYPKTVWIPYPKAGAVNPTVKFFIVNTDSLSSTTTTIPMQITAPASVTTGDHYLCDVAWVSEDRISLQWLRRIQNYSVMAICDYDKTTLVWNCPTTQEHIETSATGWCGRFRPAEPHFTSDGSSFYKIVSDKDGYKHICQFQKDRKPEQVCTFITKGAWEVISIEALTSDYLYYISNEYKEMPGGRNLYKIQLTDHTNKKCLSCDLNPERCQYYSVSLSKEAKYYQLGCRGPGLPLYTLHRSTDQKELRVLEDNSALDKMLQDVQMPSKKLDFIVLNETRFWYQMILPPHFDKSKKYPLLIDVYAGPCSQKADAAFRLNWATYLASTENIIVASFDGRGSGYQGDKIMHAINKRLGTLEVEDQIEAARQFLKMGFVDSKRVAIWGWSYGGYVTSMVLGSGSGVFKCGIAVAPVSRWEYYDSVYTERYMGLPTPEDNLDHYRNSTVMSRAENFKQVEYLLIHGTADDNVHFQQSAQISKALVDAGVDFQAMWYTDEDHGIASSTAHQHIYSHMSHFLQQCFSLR

With `Br.CC(=O)OCC(=O)[C@@H]1CCCN1C(=O)[C@@H](NC(=O)[C@H](C)N)C(C)C` [Ala-Val-Pro-Acyloxymethylketone, H-Ala-Val-Pro-CH2O—C(O)CH3*HBr], on plasma DP IV activity, the “in vivo DP IV-inhibition at tmax, i.v.” value is 89% and the “in vivo DP IV-inhibition at tmax, p.o.” value is given as 86%.
On to `Br.CC(C)[C@H](NC(=O)[C@H](C)N)C(=O)N1CCC[C@H]1C(=O)COC(=O)c1ccccc1` [Ala-Val-Pro-Benzoyl-methylketone, H-Ala-Val-Pro-CH2O—C(O)Ph*HBr], for which, on plasma DP IV activity, the “in vivo DP IV-inhibition at tmax, i.v.” value was determined as 97% and the “in vivo DP IV-inhibition at tmax, p.o.” value was determined as 76%.
As to `NC(=O)CCC(N)C(=O)N1CCCC1` (stereo not drawn) [Gln-Pyrr, glutaminyl pyrrolidine], the “type of inhibition of porcine DP II” value on porcine DP II is “non-competitive type inhibitors”. In addition, the “inhibition of DP I enzyme activity” value in assay [1] was “no inhibition”.
`CN(C)CCCN1c2ccccc2CCc2ccccc21` [Imipramine]: the “severity of acute MBP-induced EAE” value in the assay on EAE is listed as “reduce the severity”.
With `CC[C@H](C)[C@H](NC(=O)[C@@H]1CCCN1C(=O)[C@@H](N)Cc1ccc(OP(=O)(O)O)cc1)C(=O)O` [Tyr(P)-Pro-Ile] (H-[pY]-Pro-Ile-OH; N-terminus assumed), the “in vivo DP IV-inhibition at tmax, p.o.” value at plasma DP IV activity was “no inhibition”.
Turning to `CC[C@H](C)[C@H](N)C(=O)N1CCSC1` [isoleucyl thiazolidine fumarate], the “effect on clinical score of EAE, days 11 and 12 p.i.” value in assay [2] (1 mg dosage i.p. daily from day 1, female Lewis rats, fumarate) is reported as “significant disease-aggravating effect; also recorded: disease-aggravating effects”. The “effect on clinical score of EAE, day 15 p.i.” value in assay [2] (10 mg dose i.p. daily from day 1, female Lewis rats, fumarate) is recorded as “significantly reduced clinical score”. In assay [2] (10 mg/kg i.p. daily from day 1, female Lewis rats), the “shortening of the latency until onset of disease” value is recorded as “about 1 day”. Also, the “effect on clinical scores in the second peak (classical acute EAE), days 10-13” value in assay [3] (1 mg dose i.p.) is “aggravate the clinical scores”; in assay [3] (30 mg/kg i.p., fumarate), “clearly improved the clinical course; also recorded: significant delaying and ameliorating effects”. Also, the Average score in assay [3] (1 mg/kg i.p. daily) was 0.96*; in assay [3] (3 mg/kg i.p. daily), 0.8; in assay [3] (10 mg/kg i.p. daily), 0.72; in assay [3] (30 mg/kg i.p. daily), 0.37**. Besides, the Maximal score in assay [3] (1 mg/kg i.p. daily) is listed as 2.8; in assay [3] (3 mg/kg i.p. daily), 3.0; in assay [3] (10 mg/kg i.p. daily) it was 2.1; in assay [3] (30 mg/kg i.p. daily), 2.0*. The “Onset of disease (1st day of score > 1)” value is listed as 10.3* in assay [3] (1 mg/kg i.p. daily), 12.0 in assay [3] (3 mg/kg i.p. daily), 12.1 in assay [3] (10 mg/kg i.p. daily) and 14.0*** in assay [3] (30 mg/kg i.p. daily). Also, the Sum of scores is listed as 14.2* in assay [3] (1 mg/kg i.p. daily), 12.0 in assay [3] (3 mg/kg i.p. daily), 10.8 in assay [3] (10 mg/kg i.p. daily) and 5.6** in assay [3] (30 mg/kg i.p. daily). In assay [3] (3 mg and 10 mg dosages i.p.), the “effect on disease activity after initiation of treatment, days 6-9” value was “induced a significant first peak of disease activity”.

(Values after patent US7368421B2, “Use of dipeptidyl peptidase IV inhibitors in the treatment of multiple sclerosis” (Probiodrug AG, priority 2001, dated 2008).)
